In BindingDB's records for patent US11884671 (AstraZeneca, 2024):

Legend:
[1] = target: T1, Tyrosine-protein kinase JAK3 (Homo sapiens, UniProt P52333); test: Enzyme Assay
T1 sequence (P52333 whole entry): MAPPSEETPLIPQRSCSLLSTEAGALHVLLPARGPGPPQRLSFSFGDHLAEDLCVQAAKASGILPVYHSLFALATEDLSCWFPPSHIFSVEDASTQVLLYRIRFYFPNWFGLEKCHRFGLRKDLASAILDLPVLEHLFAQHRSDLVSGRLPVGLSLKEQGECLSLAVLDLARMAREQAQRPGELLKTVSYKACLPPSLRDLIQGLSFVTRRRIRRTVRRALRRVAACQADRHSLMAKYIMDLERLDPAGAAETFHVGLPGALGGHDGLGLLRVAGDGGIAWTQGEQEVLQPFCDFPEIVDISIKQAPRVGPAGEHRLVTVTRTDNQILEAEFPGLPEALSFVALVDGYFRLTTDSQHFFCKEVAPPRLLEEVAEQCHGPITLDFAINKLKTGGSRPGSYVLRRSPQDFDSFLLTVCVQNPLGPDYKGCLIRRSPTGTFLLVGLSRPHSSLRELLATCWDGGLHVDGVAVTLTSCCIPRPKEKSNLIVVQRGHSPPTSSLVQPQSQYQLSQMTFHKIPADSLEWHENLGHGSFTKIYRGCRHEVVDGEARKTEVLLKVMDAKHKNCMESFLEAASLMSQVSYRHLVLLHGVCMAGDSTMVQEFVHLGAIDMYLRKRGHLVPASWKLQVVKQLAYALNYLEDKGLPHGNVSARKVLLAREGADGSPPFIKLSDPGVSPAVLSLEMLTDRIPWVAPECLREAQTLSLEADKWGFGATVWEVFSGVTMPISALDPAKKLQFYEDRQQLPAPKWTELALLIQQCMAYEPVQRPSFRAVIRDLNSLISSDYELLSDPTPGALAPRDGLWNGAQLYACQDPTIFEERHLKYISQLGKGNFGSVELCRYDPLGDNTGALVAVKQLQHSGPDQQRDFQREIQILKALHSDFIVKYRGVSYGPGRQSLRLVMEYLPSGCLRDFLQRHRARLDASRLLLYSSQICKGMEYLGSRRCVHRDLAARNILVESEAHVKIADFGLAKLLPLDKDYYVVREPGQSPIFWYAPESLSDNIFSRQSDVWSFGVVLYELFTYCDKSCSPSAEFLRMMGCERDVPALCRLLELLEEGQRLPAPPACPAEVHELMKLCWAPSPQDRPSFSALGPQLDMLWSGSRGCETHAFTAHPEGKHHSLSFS
Method: JAK3: The 2×JAK3/Tyr 06 (ThermoFisher Scientific proprietary) mixture was prepared in 50 mM HEPES pH 7.5. 0.01% BRIJ-35, 10 mM MgCl2, 1 mM EGTA.

Aurora kinase B = Aurora kinase B (Homo sapiens, UniProt Q96GD4); test: Enzyme Assay
Aurora kinase B, sequence (Q96GD4 whole entry): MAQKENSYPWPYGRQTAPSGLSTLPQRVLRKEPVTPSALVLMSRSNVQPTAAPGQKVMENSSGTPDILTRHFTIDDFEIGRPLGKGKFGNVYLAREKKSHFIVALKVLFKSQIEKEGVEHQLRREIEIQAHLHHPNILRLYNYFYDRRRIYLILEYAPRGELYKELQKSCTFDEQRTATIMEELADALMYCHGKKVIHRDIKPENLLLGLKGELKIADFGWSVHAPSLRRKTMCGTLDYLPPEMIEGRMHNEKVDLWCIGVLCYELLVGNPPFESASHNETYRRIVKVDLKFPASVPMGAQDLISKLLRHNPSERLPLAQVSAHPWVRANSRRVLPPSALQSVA
Method: Aurora B (AurB): The 2×AURKB (Aurora B)/Ser/Thr 01 (ThermoFisher Scientific proprietary) mixture was prepared in 50 mM HEPES pH 7.5, 0.01% BRIJ-35, 10 mM MgCl2, 1 mM EGTA.

Aurora kinase A = target: T2, Aurora kinase A (Homo sapiens, UniProt O14965)
T2 sequence (O14965 whole entry): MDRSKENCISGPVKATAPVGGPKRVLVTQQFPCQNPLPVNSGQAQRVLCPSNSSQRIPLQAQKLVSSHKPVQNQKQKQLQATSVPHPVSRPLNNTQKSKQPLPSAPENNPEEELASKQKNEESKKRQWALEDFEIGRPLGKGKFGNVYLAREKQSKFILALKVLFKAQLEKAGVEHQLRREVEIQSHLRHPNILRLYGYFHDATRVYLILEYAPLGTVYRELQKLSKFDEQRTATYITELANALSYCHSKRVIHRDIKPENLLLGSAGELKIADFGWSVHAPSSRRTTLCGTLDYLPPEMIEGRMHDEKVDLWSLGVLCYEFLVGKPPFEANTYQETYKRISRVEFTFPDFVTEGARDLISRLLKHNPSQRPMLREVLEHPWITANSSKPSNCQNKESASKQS

[2] = target: Tyrosine-protein kinase JAK2 (Homo sapiens, UniProt O60674); test: Enzyme Assay
Tyrosine-protein kinase JAK2, sequence (O60674 whole entry): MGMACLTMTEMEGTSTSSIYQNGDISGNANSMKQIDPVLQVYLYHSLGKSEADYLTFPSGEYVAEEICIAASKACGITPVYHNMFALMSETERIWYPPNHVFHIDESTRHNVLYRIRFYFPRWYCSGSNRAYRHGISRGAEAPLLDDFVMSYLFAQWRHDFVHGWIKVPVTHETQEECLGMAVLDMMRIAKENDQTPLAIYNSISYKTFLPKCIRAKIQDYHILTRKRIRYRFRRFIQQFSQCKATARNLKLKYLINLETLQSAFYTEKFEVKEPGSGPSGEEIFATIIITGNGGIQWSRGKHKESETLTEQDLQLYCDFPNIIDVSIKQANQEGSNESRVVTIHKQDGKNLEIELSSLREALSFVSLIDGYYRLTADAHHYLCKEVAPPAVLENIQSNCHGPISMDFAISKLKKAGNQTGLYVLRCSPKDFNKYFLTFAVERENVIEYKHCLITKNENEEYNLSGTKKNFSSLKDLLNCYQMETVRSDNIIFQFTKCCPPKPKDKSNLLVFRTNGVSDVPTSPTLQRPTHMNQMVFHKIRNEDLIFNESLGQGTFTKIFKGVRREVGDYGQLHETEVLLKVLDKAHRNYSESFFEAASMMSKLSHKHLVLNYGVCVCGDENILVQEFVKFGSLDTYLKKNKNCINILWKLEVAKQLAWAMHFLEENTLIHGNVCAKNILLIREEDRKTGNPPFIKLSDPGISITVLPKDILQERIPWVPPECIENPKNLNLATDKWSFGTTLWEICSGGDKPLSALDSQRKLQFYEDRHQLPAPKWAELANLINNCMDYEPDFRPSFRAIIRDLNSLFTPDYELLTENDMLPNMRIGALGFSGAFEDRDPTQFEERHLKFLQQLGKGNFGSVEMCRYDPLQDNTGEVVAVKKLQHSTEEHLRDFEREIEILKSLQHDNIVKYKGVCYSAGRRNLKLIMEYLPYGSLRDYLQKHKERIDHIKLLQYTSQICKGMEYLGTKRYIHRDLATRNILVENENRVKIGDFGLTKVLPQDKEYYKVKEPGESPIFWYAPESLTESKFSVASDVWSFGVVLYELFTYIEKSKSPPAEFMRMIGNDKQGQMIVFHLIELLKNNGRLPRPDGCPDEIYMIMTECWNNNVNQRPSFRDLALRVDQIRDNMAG
Method: JAK2: The 2×JAK2/Tyr 06 (ThermoFisher Scientific proprietary) mixture was prepared in 50 mM HEPES pH 7.5, 0.01% BRIJ-35, 10 mM MgCl2, 1 mM EGTA.

[3] = target: T3, Dual specificity protein kinase TTK (Homo sapiens, UniProt P33981); test: TTK Enzyme Assay
T3 sequence (P33981 whole entry): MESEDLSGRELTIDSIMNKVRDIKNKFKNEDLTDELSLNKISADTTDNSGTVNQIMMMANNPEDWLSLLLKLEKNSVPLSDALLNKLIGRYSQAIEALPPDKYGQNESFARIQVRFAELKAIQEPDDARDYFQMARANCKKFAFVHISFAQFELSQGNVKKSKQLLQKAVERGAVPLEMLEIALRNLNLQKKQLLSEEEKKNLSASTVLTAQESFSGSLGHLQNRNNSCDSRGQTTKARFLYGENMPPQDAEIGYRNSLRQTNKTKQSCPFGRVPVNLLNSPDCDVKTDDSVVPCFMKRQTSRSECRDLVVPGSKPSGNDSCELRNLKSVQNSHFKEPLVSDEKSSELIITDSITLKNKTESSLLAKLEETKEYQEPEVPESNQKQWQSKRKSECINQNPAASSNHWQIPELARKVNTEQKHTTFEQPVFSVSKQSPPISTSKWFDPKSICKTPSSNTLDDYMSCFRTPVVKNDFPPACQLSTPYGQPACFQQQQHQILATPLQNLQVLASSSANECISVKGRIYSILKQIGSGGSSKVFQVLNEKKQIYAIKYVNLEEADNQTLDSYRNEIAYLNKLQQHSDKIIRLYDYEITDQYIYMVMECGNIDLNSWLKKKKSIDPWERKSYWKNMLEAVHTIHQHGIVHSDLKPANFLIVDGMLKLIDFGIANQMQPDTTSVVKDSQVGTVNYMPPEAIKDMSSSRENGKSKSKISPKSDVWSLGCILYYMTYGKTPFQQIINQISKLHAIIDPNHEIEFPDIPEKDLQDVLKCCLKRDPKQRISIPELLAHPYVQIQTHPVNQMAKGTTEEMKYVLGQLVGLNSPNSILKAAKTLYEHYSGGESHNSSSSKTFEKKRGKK
Method: The inhibitory activity of compounds against TTK was determined in a LanthaScreen Eu Kinase Binding assay run by ThermoFisher Scientific as part of their SelectScreen Biochemical Kinase Profiling Service. The LanthaScreen Eu Kinase Binding assay format uses binding of an Alexa Fluor conjugate or tracer to a kinase, which is detected by addition of a Eu-labeled anti-tag antibody. […] Plates were then read using a fluorescence plate reader.

[4] = target: Tyrosine-protein kinase JAK1 (Homo sapiens, UniProt P23458); test: Enzyme Assay
Tyrosine-protein kinase JAK1, sequence (P23458 whole entry): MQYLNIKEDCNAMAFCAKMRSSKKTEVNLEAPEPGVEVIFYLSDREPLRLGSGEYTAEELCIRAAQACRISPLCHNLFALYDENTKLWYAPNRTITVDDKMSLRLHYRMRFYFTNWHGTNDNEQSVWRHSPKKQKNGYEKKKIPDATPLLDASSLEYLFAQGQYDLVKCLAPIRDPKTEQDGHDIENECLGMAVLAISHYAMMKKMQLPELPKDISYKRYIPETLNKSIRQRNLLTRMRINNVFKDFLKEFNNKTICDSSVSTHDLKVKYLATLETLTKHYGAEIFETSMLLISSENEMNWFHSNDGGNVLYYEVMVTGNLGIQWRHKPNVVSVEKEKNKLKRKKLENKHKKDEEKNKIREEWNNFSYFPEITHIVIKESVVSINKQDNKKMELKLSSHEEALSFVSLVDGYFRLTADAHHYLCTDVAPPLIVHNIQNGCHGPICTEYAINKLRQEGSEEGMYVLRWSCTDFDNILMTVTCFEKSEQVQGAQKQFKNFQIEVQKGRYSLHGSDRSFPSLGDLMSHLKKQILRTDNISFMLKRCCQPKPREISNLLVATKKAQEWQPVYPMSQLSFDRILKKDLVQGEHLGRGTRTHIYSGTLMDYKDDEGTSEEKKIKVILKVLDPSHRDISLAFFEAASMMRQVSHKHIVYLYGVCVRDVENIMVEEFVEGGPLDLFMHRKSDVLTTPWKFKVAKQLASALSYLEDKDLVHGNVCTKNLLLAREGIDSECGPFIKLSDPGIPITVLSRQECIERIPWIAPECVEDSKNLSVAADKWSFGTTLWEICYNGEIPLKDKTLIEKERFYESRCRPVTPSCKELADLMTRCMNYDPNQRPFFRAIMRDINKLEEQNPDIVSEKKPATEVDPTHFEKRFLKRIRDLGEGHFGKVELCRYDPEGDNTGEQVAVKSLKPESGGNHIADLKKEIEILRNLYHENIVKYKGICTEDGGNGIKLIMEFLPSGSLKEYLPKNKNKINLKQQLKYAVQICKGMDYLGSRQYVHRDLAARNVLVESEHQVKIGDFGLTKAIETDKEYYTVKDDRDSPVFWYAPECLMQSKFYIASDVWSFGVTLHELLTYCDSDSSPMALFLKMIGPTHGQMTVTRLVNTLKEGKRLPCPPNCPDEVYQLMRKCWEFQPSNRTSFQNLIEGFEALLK
Method: JAK1: The 2×JAK/Tyr 06 (ThermoFisher Scientific proprietary) mixture was prepared in 50 mM HEPES pH 6.5, 0.01% BRIJ-35, 10 mM MgCl2, 1 mM EGTA, 0.02% NaN3.

SMILES	IC50 [1] [µM]	IC50 (Aurora kinase B) [µM]	IC50 (Aurora kinase A) [µM]	IC50 [2] [µM]	IC50 [3] [µM]	IC50 [4] [µM]
Cc1cc2ncccc2cc1Nc1ncc2c(n1)n([C@H]1CC[C@@](C)(O)CC1)c(=O)n2C [US11884671, Example 14]	> 10	> 10	> 10	> 10	0.1	> 10
Cc1cc2ncccc2cc1Nc1ncc2c(n1)n([C@H]1CC[C@](C)(O)CC1)c(=O)n2C [US11884671, Example 15]	> 10	> 10	> 10	> 10	0.251	> 10
Cc1cc2nnccc2cc1Nc1ncc2c(n1)n([C@H]1CC[C@@](C)(O)CC1)c(=O)n2C [US11884671, Example 16]	> 10	> 10	> 10	> 10	0.2	> 10
Cc1cc2nnccc2cc1Nc1ncc2c(n1)n([C@H]1CC[C@](C)(O)CC1)c(=O)n2C [US11884671, Example 17]	> 10	> 10	> 10	> 10	0.316	> 10
